In US9670227B2, “Thienopyrimidine derivatives, a process for their preparation and pharmaceutical compositions containing them” (LES LABORATOIRES SERVIER, priority 2013, dated 2017):

Key:
[1] = target: Mcl-1 protein (UniProtKB primary accession number: Q07820) (Homo sapiens, UniProt Q07820); assay: Inhibition of Mcl-1 by fluorescence polarisation, Method 1; format: binding; details: fluorescence polarisation test; Method 2 values are underlined in the patent (underlining not visible here); read-out: IC50 (M) Mcl-1 FP
Chain of Mcl-1 protein (Q07820 whole entry): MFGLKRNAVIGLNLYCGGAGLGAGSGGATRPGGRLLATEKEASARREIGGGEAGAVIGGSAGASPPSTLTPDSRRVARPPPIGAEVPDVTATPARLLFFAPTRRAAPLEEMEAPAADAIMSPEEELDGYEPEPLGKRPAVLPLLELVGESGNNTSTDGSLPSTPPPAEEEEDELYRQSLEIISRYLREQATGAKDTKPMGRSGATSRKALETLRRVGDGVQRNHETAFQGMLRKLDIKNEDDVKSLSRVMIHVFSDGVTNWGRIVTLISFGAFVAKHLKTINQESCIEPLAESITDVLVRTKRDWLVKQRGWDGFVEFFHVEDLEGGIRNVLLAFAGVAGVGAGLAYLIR
In short: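 Buffer of 10 mM HEPES pH 7.4 with 150 mM NaCl and 0.05% Tween 20 held 5 nM Mcl-1 and 1 nM fluorescein-tagged ligand (final). Compounds were tested as 11-point serial dilutions at 5% final DMSO, and binding was read by FP.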

[2] = test system: H929 multiple myeloma tumour line; assay: In vitro cytotoxicity, Microculture Tetrazolium Assay; format: cell-based; details: Homo sapiens, NCI-H929, 48 h, H929 cells, 48 hours exposure, MTT; read-out: IC50 (μM) MTT H929
Procedure: The cytotoxicity studies were carried out on the H929 multiple myeloma tumour line.
The cells are distributed onto microplates and exposed to the test compounds for 48 hours.

SMILES	IC50 [1] [M]	IC50 [2] [µM]
Cc1c(-c2c(-c3ccc(F)cc3)sc3ncnc(OC(Cc4ccccc4OCc4ccnc(C(F)(F)F)n4)C(=O)O)c23)ccc(OCCN2CCN(C)CC2)c1Cl [Example 25, (2R)-2-{[(5Sa)-5-{3-chloro-2-methyl-4-[2-(4-methylpiperazin-1-yl)ethoxy]phenyl}-6-(4-fluorophenyl)thieno[2,3-d]pyrimidin-4-yl]oxy}-3-(2-{[2-(trifluoromethyl)pyrimidin-4-yl]methoxy}phenyl)propanoic acid]	5.6e-09	0.074
Cc1c(-c2c(-c3ccc(F)cc3)sc3ncnc(OC(Cc4ccccc4OCc4ccnc(C5CC5)n4)C(=O)O)c23)ccc(OCCN2CCN(C)CC2)c1Cl [Example 26, (2R)-2-{[(5Sa)-5-{3-chloro-2-methyl-4-[2-(4-methylpiperazin-1-yl)ethoxy]phenyl}-6-(4-fluorophenyl)thieno[2,3-d]pyrimidin-4-yl]oxy}-3-{2-[(2-cyclopropylpyrimidin-4-yl)methoxy]phenyl}propanoic acid]	1.1e-08	0.028
Cc1c(-c2c(-c3ccc(F)cc3)sc3ncnc(OC(Cc4ccccc4OCc4ccnc(-c5ccc(Cl)cc5)n4)C(=O)O)c23)ccc(OCCN2CCN(C)CC2)c1Cl [Example 27, (2R)-2-{[(5Sa)-5-{3-chloro-2-methyl-4-[2-(4-methylpiperazin-1-yl)ethoxy]phenyl}-6-(4-fluorophenyl)thieno[2,3-d]pyrimidin-4-yl]oxy}-3-(2-{[2-(4-chlorophenyl)pyrimidin-4-yl]methoxy}phenyl)propanoic acid]	6.6e-09	0.045
Cc1c(-c2c(-c3ccc(F)cc3)sc3ncnc(OC(Cc4ccccc4OCc4ccnc(C5CCCC5)n4)C(=O)O)c23)ccc(OCCN2CCN(C)CC2)c1Cl [Example 28, (2R)-2-{[(5Sa)-5-{3-chloro-2-methyl-4-[2-(4-methylpiperazin-1-yl)ethoxy]phenyl}-6-(4-fluorophenyl)thieno[2,3-d]pyrimidin-4-yl]oxy}-3-{2-[(2-cyclopentylpyrimidin-4-yl)methoxy]phenyl}propanoic acid]	4.5e-09	0.021
Cc1c(-c2c(-c3ccc(F)cc3)sc3ncnc(OC(Cc4ccccc4OCc4ccnc(-c5ccccc5)n4)C(=O)O)c23)ccc(OCCN2CCN(C)CC2)c1Cl [Example 29, (2R)-2-{[(5Sa)-5-{3-chloro-2-methyl-4-[2-(4-methylpiperazin-1-yl)ethoxy]phenyl}-6-(4-fluorophenyl)thieno[2,3-d]pyrimidin-4-yl]oxy}-3-{2-[(2-phenylpyrimidin-4-yl)methoxy]phenyl}propanoic acid]	3.3e-09	0.007
Cc1c(-c2c(-c3ccc(F)cc3)sc3ncnc(OC(Cc4ccccc4OCc4ccnc(-c5cccs5)n4)C(=O)O)c23)ccc(OCCN2CCN(C)CC2)c1Cl [Example 33, (2R)-2-{[(5Sa)-5-{3-chloro-2-methyl-4-[2-(4-methylpiperazin-1-yl)ethoxy]phenyl}-6-(4-fluorophenyl)thieno[2,3-d]pyrimidin-4-yl]oxy}-3-(2-{[2-(thiophen-2-yl)pyrimidin-4-yl]methoxy}phenyl)propanoic acid]	7.8e-09	0.017
Cc1c(-c2c(-c3ccc(F)cc3)sc3ncnc(OC(Cc4ccccc4OCc4ccnc(-c5ccoc5)n4)C(=O)O)c23)ccc(OCCN2CCN(C)CC2)c1Cl [Example 35, (2R)-2-{[(5Sa)-5-{3-chloro-2-methyl-4-[2-(4-methylpiperazin-1-yl)ethoxy]phenyl}-6-(4-fluorophenyl)thieno[2,3-d]pyrimidin-4-yl]oxy}-3-(2-{[2-(furan-3-yl)pyrimidin-4-yl]methoxy}phenyl)propanoic acid]	4.8e-09	0.027
Cc1c(-c2c(-c3ccc(F)cc3)sc3ncnc(OC(Cc4ccccc4OCc4ccnc(-c5nccs5)n4)C(=O)O)c23)ccc(OCCN2CCN(C)CC2)c1Cl [Example 36, (2R)-2-{[(5Sa)-5-{3-chloro-2-methyl-4-[2-(4-methylpiperazin-1-yl)ethoxy]phenyl}-6-(4-fluorophenyl)thieno[2,3-d]pyrimidin-4-yl]oxy}-3-(2-{[2-(1,3-thiazol-2-yl)pyrimidin-4-yl]methoxy}phenyl)propanoic acid]	1.1e-08	0.015
CCc1nccc(COc2ccccc2CC(Oc2ncnc3sc(-c4ccc(F)cc4)c(-c4ccc(OCCN5CCN(C)CC5)c(Cl)c4C)c23)C(=O)O)n1 [Example 37, (2R)-2-{[(5Sa)-5-{3-chloro-2-methyl-4-[2-(4-methylpiperazin-1-yl)ethoxy]phenyl}-6-(4-fluorophenyl)thieno[2,3-d]pyrimidin-4-yl]oxy}-3-{2-[(2-ethylpyrimidin-4-yl)methoxy]phenyl}propanoic acid]	6e-09	0.014
Cc1c(-c2c(-c3ccc(F)cc3)sc3ncnc(OC(Cc4ccccc4OCc4ccnc(CC(C)C)n4)C(=O)O)c23)ccc(OCCN2CCN(C)CC2)c1Cl [Example 38, (2R)-2-{[(5Sa)-5-{3-chloro-2-methyl-4-[2-(4-methylpiperazin-1-yl)ethoxy]phenyl}-6-(4-fluorophenyl)thieno[2,3-d]pyrimidin-4-yl]oxy}-3-(2-{[2-(2-methylpropyl)pyrimidin-4-yl]methoxy}phenyl)propanoic acid]	1.9e-09	0.016
Cc1c(-c2c(-c3ccc(F)cc3)sc3ncnc(OC(Cc4ccccc4OCc4ccnc(CC5CC5)n4)C(=O)O)c23)ccc(OCCN2CCN(C)CC2)c1Cl [Example 39, (2R)-2-{[(5Sa)-5-{3-chloro-2-methyl-4-[2-(4-methylpiperazin-1-yl)ethoxy]phenyl}-6-(4-fluorophenyl)thieno[2,3-d]pyrimidin-4-yl]oxy}-3-(2-{[2-(cyclopropylmethyl)pyrimidin-4-yl]methoxy}phenyl)propanoic acid]	4.8e-09	0.015
Cc1c(-c2c(-c3ccc(F)cc3)sc3ncnc(OC(Cc4ccccc4OCc4ccnc(Cc5ccccc5)n4)C(=O)O)c23)ccc(OCCN2CCN(C)CC2)c1Cl [Example 40, (2R)-3-{2-[(2-benzylpyrimidin-4-yl)methoxy]phenyl}-2-{[(5Sa)-5-{3-chloro-2-methyl-4-[2-(4-methylpiperazin-1-yl)ethoxy]phenyl}-6-(4-fluorophenyl)thieno[2,3-d]pyrimidin-4-yl]oxy}propanoic acid]	5.6e-09	0.008
CCCCc1nccc(COc2ccccc2CC(Oc2ncnc3sc(-c4ccc(F)cc4)c(-c4ccc(OCCN5CCN(C)CC5)c(Cl)c4C)c23)C(=O)O)n1 [Example 42, (2R)-3-{2-[(2-butylpyrimidin-4-yl)methoxy]phenyl}-2-{[(5Sa)-5-{3-chloro-2-methyl-4-[2-(4-methylpiperazin-1-yl)ethoxy]phenyl}-6-(4-fluorophenyl)thieno[2,3-d]pyrimidin-4-yl]oxy}propanoic acid]	3.2e-09	0.012
Cc1c(-c2c(-c3ccc(F)cc3)sc3ncnc(OC(Cc4ccccc4OCc4ccnc(CCN(C)C)n4)C(=O)O)c23)ccc(OCCN2CCN(C)CC2)c1Cl [Example 43, (2R)-2-{[(5Sa)-5-{3-chloro-2-methyl-4-[2-(4-methylpiperazin-1-yl)ethoxy]phenyl}-6-(4-fluorophenyl)thieno[2,3-d]pyrimidin-4-yl]oxy}-3-[2-({2-[2-(dimethylamino)ethyl]pyrimidin-4-yl}methoxy)phenyl]propanoic acid]	9.8e-09	0.465
Cc1c(-c2c(-c3ccc(F)cc3)sc3ncnc(OC(Cc4ccccc4OCc4ccnc(COc5ccccc5)n4)C(=O)O)c23)ccc(OCCN2CCN(C)CC2)c1Cl [Example 46, (2R)-2-{[(5Sa)-5-{3-chloro-2-methyl-4-[2-(4-methylpiperazin-1-yl)ethoxy]phenyl}-6-(4-fluorophenyl)thieno[2,3-d]pyrimidin-4-yl]oxy}-3-(2-{[2-(phenoxymethyl)pyrimidin-4-yl]methoxy}phenyl)propanoic acid]	7.3e-09	0.024
COCCN(C)c1nccc(COc2ccccc2CC(Oc2ncnc3sc(-c4ccc(F)cc4)c(-c4ccc(OCCN5CCN(C)CC5)c(Cl)c4C)c23)C(=O)O)n1 [Example 48, (2R)-2-{[(5Sa)-5-{3-chloro-2-methyl-4-[2-(4-methylpiperazin-1-yl)ethoxy]phenyl}-6-(4-fluorophenyl)thieno[2,3-d]pyrimidin-4-yl]oxy}-3-[2-({2-[(2-methoxyethyl)(methyl)amino]pyrimidin-4-yl}methoxy)phenyl]propanoic acid]	1.1e-08	0.122
Cc1c(-c2c(-c3ccc(F)cc3)sc3ncnc(OC(Cc4ccccc4OCc4ccnc(N5CCN(C)CC5)n4)C(=O)O)c23)ccc(OCCN2CCN(C)CC2)c1Cl [Example 50, (2R)-2-{[(5Sa)-5-{3-chloro-2-methyl-4-[2-(4-methylpiperazin-1-yl)ethoxy]phenyl}-6-(4-fluorophenyl)thieno[2,3-d]pyrimidin-4-yl]oxy}-3-(2-{[2-(4-methylpiperazin-1-yl)pyrimidin-4-yl]methoxy}phenyl)propanoic acid]	7.6e-09	0.076
Cc1c(-c2c(-c3ccc(F)cc3)sc3ncnc(OC(Cc4ccccc4OCc4ccnc(-n5ccnn5)n4)C(=O)O)c23)ccc(OCCN2CCN(C)CC2)c1Cl [Example 51, (2R)-2-{[(5Sa)-5-{3-chloro-2-methyl-4-[2-(4-methylpiperazin-1-yl)ethoxy]phenyl}-6-(4-fluorophenyl)thieno[2,3-d]pyrimidin-4-yl]oxy}-3-(2-{[2-(1H-1,2,3-triazol-1-yl)pyrimidin-4-yl]methoxy}phenyl)propanoic acid]	3.5e-09	0.038
